In patent US10981860B2, “Caspase inhibitor and pharmaceutical composition, use and therapeutic method thereof” (Chia Tai Tianqing Pharmaceutical Group Co., Ltd., priority 2016, dated 2021) one finds EC50 data, which are given here for 57 molecules.

The EC50 is the concentration at which the effect is half-maximal. A high value points to a less potent agent.

The assay has as its system Anti-Fas-induced Jurkat cells. Nature of the assay: Anti-Fas-induced apoptosis of Jurkat cells in vitro (Caspase 3 substrate Ac-DEVD-AMC fluorescence). Type of assay: cell-based. As to conditions: Homo sapiens; Jurkat Clone E6-1, Anti-Fas 50 ng/mL, 24 hours, Ac-DEVD-AMC 10 μM.
Turning to `O=C(O)C[C@H](NC(=O)C1CCN(C(=O)OCc2ccc(Cl)cc2Cl)CC1)C(=O)COc1c(F)c(F)cc(F)c1F` [Example 91], it took 0.062 µM to reach a half-maximal effect (EC50).

In turn, `Cc1c(F)cc(F)c(F)c1OCC(=O)[C@H](CC(=O)O)NC(=O)C1CCN(C(=O)c2noc3ccccc23)CC1` [Example 41] came in with an EC50 of 0.0188 µM.

On to `O=C(O)C[C@H](NC(=O)C1CCN(C(=O)c2ccncc2)CC1)C(=O)COc1c(F)c(F)cc(F)c1F` [Example 37], for which the 50% effective concentration (EC50) was 0.0239 µM. The EC50 values of the last two molecules are within 1.5-fold of each other. As to `CC(C)(C)c1ccccc1NC(=O)C(=O)N1CCCO[C@H](C(=O)N[C@@H](CC(=O)O)C(=O)COc2c(F)c(F)cc(F)c2F)C1` [Example 109], the response was half-maximal at 0.192 µM (EC50). The result for `Cn1c(C(=O)N2CCC(C(=O)N[C@@H](CC(=O)O)C(=O)COc3c(F)c(F)cc(F)c3F)CC2)nc2ccccc21` [Example 43] reads 0.0386 µM.

`CC(C)(C)c1ccccc1NC(=O)C(=O)N1CCOC[C@H](C(=O)N[C@@H](CC(=O)O)C(=O)COc2c(F)c(F)cc(F)c2F)C1` [Example 124] showed an EC50 of 0.0287 µM. The result for `O=C(O)C[C@H](NC(=O)C1CC2(CCN(C(=O)C3CCCC3)CC2)C1)C(=O)COc1c(F)c(F)cc(F)c1F` [Example 106] reads 0.0175 µM.

`O=C(O)C[C@H](NC(=O)C1CCN(C(=O)c2nsc3ccccc23)CC1)C(=O)COc1c(F)c(F)cc(F)c1F` [Example 51] gave a concentration for a half-maximal effect (EC50) of 0.0272 µM. `O=C(O)C[C@H](NC(=O)C1CCN(C(=O)Oc2cccc(Cl)c2Cl)CC1)C(=O)COc1c(F)c(F)cc(F)c1F` [Example 103] returned an EC50 of 0.0198 µM. For `CC(C)(C)c1ccccc1NC(=O)C(=O)N1CCCCC[C@@H](C(=O)N[C@@H](CC(=O)O)C(=O)COc2c(F)c(F)cc(F)c2F)C1` [Example 113] the value was 0.0462 µM; for `CC(C)(C)c1ccccc1NC(=O)C(=O)N1C[C@@H](C(=O)N[C@@H](CC(=O)O)C(=O)COc2c(F)c(F)cc(F)c2F)Cc2ccccc21` [Example 17], 0.289 µM; for `CC(C)OC(=O)N1CCC[C@@H](C(=O)N[C@@H](CC(=O)O)C(=O)COc2c(F)c(F)cc(F)c2F)C1` [Example 30], 0.0145 µM. The result for `O=C(O)C[C@H](NC(=O)[C@H]1COCCN(C(=O)c2noc3ccccc23)C1)C(=O)COc1c(F)c(F)cc(F)c1F` [Example 127] reads 0.00714 µM; that for `CC(C)(C)c1ccccc1NC(=O)C(=O)N1CCCC[C@@](C)(C(=O)N[C@@H](CC(=O)O)C(=O)COc2c(F)c(F)cc(F)c2F)C1` [Example 112], 0.165 µM. Regarding `Cc1ccc(Cl)c(OC(=O)N2CCC(C(=O)N[C@@H](CC(=O)O)C(=O)COc3c(F)c(F)cc(F)c3F)CC2)c1` [Example 72], the 50% effective concentration (EC50) is 0.0179 µM.

In turn, `CC(C)[C@H]1CC[C@H](C)C[C@@H]1OC(=O)N1CCC(C(=O)N[C@@H](CC(=O)O)C(=O)COc2c(F)c(F)cc(F)c2F)CC1` [Example 77] yielded an EC50 of 0.096 µM. `CC(C)(C)c1ccccc1C(=O)N1CCC(C(=O)N[C@@H](CC(=O)O)C(=O)COc2c(F)c(F)cc(F)c2F)CC1` [Example 53]: a half-maximal effect (EC50) was put at 0.0675 µM. Consider `O=C(O)C[C@H](NC(=O)C1CCN(C(=O)OCc2cc(Cl)ccc2Cl)CC1)C(=O)COc1c(F)c(F)cc(F)c1F` [Example 96], for which the response was half-maximal at 0.0528 µM (EC50). For `O=C(O)C[C@H](NC(=O)C1CCN(C(=O)Nc2ccccc2)CC1)C(=O)COc1c(F)c(F)cc(F)c1F` [Example 80] the value was 0.0175 µM. The result for `Cn1c(C(=O)N2CCC(C(=O)N[C@@H](CC(=O)OC(C)(C)C)C(=O)COc3c(F)c(F)cc(F)c3F)CC2)cc2ccccc21` [Example 44] reads 0.0397 µM; that for `CC(C)(C)c1ccccc1NC(=O)C(=O)N1CCCCC[C@H](C(=O)N[C@@H](CC(=O)O)C(=O)COc2c(F)c(F)cc(F)c2F)C1` [Example 114], 0.0663 µM.

As for `Cc1ccc(C)c(CNC(=O)C(=O)N2CCC(C(=O)N[C@@H](CC(=O)O)C(=O)COc3c(F)c(F)cc(F)c3F)CC2)c1` [Example 95], the concentration giving a half-maximal response (EC50) turned out to be 0.0332 µM.

Turning to `O=C(O)C[C@H](NC(=O)c1ccc(NC(=O)OCc2ccccc2)cc1)C(=O)COc1c(F)c(F)cc(F)c1F` [Example 23], the midpoint of the response, the EC50, lay at 0.215 µM. Against the preceding molecule, the EC50 is about 6.5-fold higher. `O=C(O)C[C@H](NC(=O)[C@@H]1CCCN(C(=O)OC2CCCC2)C1)C(=O)COc1c(F)c(F)cc(F)c1F` [Example 28] displayed an EC50 of 0.0221 µM. As for `O=C(O)C[C@H](NC(=O)C1CCN(C(=O)c2ccno2)CC1)C(=O)COc1c(F)c(F)cc(F)c1F` [Example 85], a half-maximal response (EC50) required 0.0163 µM. For `CC(C)(C)c1ccccc1NC(=O)C(=O)N1CC=CC[C@@H](C(=O)N[C@@H](CC(=O)O)C(=O)COc2c(F)c(F)cc(F)c2F)C1` [Example 12] the value was 0.0525 µM. Turning to `O=C(O)C[C@H](NC(=O)[C@@H]1COCCN(C(=O)c2cc(-c3ccccc3Cl)on2)C1)C(=O)COc1c(F)c(F)cc(F)c1F` [Example 126], the concentration for a half-maximal effect (EC50) turned out to be 0.00937 µM. For `O=C(O)C[C@H](NC(=O)C1CCN(C(=O)c2nccc3ccccc23)CC1)C(=O)COc1c(F)c(F)cc(F)c1F` [Example 34] the value was 0.043 µM. Molecule `CC(C)(C)c1ccccc1NC(=O)C(=O)N1CC[C@H](C(=O)N[C@@H](CC(=O)O)C(=O)COc2c(F)c(F)cc(F)c2F)C2CCCCC21` (stereo partly drawn) [Example 18] came in with a concentration for a half-maximal effect (EC50) of 0.557 µM.

As for `CC(C)(C)c1ccccc1NC(=O)C(=O)N1CC[C@@H](C(=O)N[C@@H](CC(=O)O)C(=O)COc2c(F)c(F)cc(F)c2F)C2CCCCC21` (stereo partly drawn) [Example 19], the EC50 is 0.224 µM. For `CC(C)(C)c1ccccc1NC(=O)C(=O)N1CCCC[C@H](C(=O)N[C@@H](CC(=O)O)C(=O)COc2c(F)c(F)cc(F)c2F)C1` (single isomer, unassigned) [Example 9] the value was 0.0655 µM. The result for `O=C(O)C[C@H](NC(=O)C1CCN(C(=O)c2cccnc2)CC1)C(=O)COc1c(F)c(F)cc(F)c1F` [Example 36] reads 0.0103 µM.

`O=C(O)C[C@H](NC(=O)C1CCN(C(=O)OCc2ccccc2)C1)C(=O)COc1c(F)c(F)cc(F)c1F` (stereo partly drawn) [Example 22] showed an EC50 of 0.0342 µM. `O=C(O)C[C@H](NC(=O)C1CN(C(=O)OCc2ccccc2)CCO1)C(=O)COc1c(F)c(F)cc(F)c1F` (stereo partly drawn) [Example 24] came in with an EC50 of 0.0497 µM. In turn, `O=C(O)C[C@H](NC(=O)[C@H]1COCCN(C(=O)c2cc(-c3ccccc3Cl)on2)C1)C(=O)COc1c(F)c(F)cc(F)c1F` [Example 125] displayed an EC50 of 0.0162 µM. On to `O=C(O)C[C@H](NC(=O)C1CCN(C(=O)c2ncccn2)CC1)C(=O)COc1c(F)c(F)cc(F)c1F` [Example 38], for which the EC50 was 0.022 µM. `O=C(O)C[C@H](NC(=O)C1CCN(C(=O)NCc2ccccc2)CC1)C(=O)COc1c(F)c(F)cc(F)c1F` [Example 78] yielded an EC50 of 0.0359 µM. The result for `CC(C)[C@@H]1CC[C@@H](C)C[C@H]1OC(=O)N1CCC(C(=O)N[C@@H](CC(=O)O)C(=O)COc2c(F)c(F)cc(F)c2F)CC1` [Example 97] reads 0.112 µM. The result for `O=C(O)C[C@H](NC(=O)[C@@H]1COCCN(C(=O)C(=O)Nc2ccccc2Cl)C1)C(=O)COc1c(F)c(F)cc(F)c1F` [Example 130] reads 0.0081 µM; that for `CC(C)(C)c1ccccc1NC(=O)C(=O)N1CCOC(C(=O)N[C@@H](CC(=O)O)C(=O)COc2c(F)c(F)cc(F)c2F)C1` (stereo partly drawn) [Example 8], 0.124 µM; that for `O=C(O)C[C@H](NC(=O)[C@@H]1COCCN(C(=O)c2noc3ccccc23)C1)C(=O)COc1c(F)c(F)cc(F)c1F` [Example 128], 0.00915 µM. The result for `O=C(O)C[C@H](NC(=O)C1CCN(C(=O)O[C@@H]2C[C@H]3CC[C@@H]2C3)CC1)C(=O)COc1c(F)c(F)cc(F)c1F` [Example 100] reads 0.0315 µM. In turn, `CC1(C(=O)N2CCC(C(=O)N[C@@H](CC(=O)O)C(=O)COc3c(F)c(F)cc(F)c3F)CC2)CCCC1` [Example 52] registered an EC50 of 0.021 µM. The result for `CN(C(=O)C(=O)N1CCC(C(=O)N[C@@H](CC(=O)O)C(=O)COc2c(F)c(F)cc(F)c2F)CC1)c1ccccc1C(C)(C)C` [Example 64] reads 0.0647 µM; that for `O=C(O)C[C@H](NC(=O)[C@@H]1CCCN(C(=O)C(=O)NC2CCCC2)C1)C(=O)COc1c(F)c(F)cc(F)c1F` [Example 27], 0.0211 µM; that for `O=C(O)C[C@H](NC(=O)C1CCN(C(=O)C(=O)N2CCCC2)CC1)C(=O)COc1c(F)c(F)cc(F)c1F` [Example 90], 0.0442 µM. For `O=C(O)C[C@H](NC(=O)C1CCN(C(=O)C(=O)NCC2CCCC2)CC1)C(=O)COc1c(F)c(F)cc(F)c1F` [Example 63] the value was 0.038 µM. The result for `O=C(O)C[C@H](NC(=O)C1CCN(c2nc3cc(F)ccc3o2)CC1)C(=O)COc1c(F)c(F)cc(F)c1F` [Example 104] reads 0.0298 µM; that for `O=C(O)C[C@H](NC(=O)C1CCN(C(=O)C(=O)Nc2cc(Cl)ccc2C(F)(F)F)CC1)C(=O)COc1c(F)c(F)cc(F)c1F` [Example 88], 0.0338 µM; that for `O=C(O)C[C@H](NC(=O)CC1CN(C(=O)C2CCCC2)C1)C(=O)COc1c(F)c(F)cc(F)c1F` [Example 105], 0.0276 µM. The molecule `O=C(O)C[C@H](NC(=O)C1CCN(C(=O)c2nc3ccccc3s2)CC1)C(=O)COc1c(F)c(F)cc(F)c1F` [Example 58] displayed an EC50 of 0.0166 µM. The result for `O=C(O)C[C@H](NC(=O)C1CCN(C(=O)c2nc3ccccc3[nH]2)CC1)C(=O)COc1c(F)c(F)cc(F)c1F` [Example 42] reads 0.0252 µM.

`O=C(O)C[C@H](NC(=O)C1CCN(C(=O)c2ccccn2)CC1)C(=O)COc1c(F)c(F)cc(F)c1F` [Example 35] showed a 50% effective concentration (EC50) of 0.0254 µM. The result for `O=C(O)C[C@H](NC(=O)C1CCN(C(=O)C(=O)NC2CCCC2)CC1)C(=O)COc1c(F)c(F)cc(F)c1F` [Example 61] reads 0.0504 µM; that for `CC(C)(C)c1ccccc1NC(=O)C(=O)N1CC=CC[C@H](C(=O)N[C@@H](CC(=O)O)C(=O)COc2c(F)c(F)cc(F)c2F)C1` [Example 11], 0.0272 µM; that for `CC(C)(C)c1ccccc1NC(=O)C(=O)N[C@H]1CC[C@H](C(=O)N[C@@H](CC(=O)O)C(=O)COc2c(F)c(F)cc(F)c2F)CC1` [Example 6], 0.552 µM. Regarding `CC(C)OC(=O)N1CCC(C(=O)N[C@@H](CC(=O)O)C(=O)COc2c(F)c(F)cc(F)c2F)CC1` [Example 68], the EC50 is 0.0232 µM.
